1 compound from US8574323B2, “Marker compounds for liquid hydrocarbons and other fuels and oils” (Angus Chemical Company, priority 2010, dated 2013) can be followed below.

Structures are written as SMILES.

Data set [1] in a line: Laundering stability and extractability of the marker in xylene solution (GC against un-laundered reference). Particulars: 8 hours; for marker: relative to control = 100. The data set is classed as physicochemical. How it is done: (§1) The stability and extractability of the markers was performed using xylene solutions containing between 100-1000 ppm makers and an equivalent amount of squalene internal reference standard using the following protocols:
Mix 95 parts marked xylenes with 5 parts laundering agent in a 100 mL vial. Mix gently for 8 hours using a magnetic stir bar. Stop mixing and remove a xylene solution aliquot. Analyze by GC and compare marker response to reference (un-laundered) sample.
(§2) Laundering Agents: • 1) 5% sulfuric acid • 2) 98% sulfuric acid • 3) 5% NaOH solution • 4) 50% NaOH solution • 5) Activated charcoal (use 98 parts xylenes solution to 2 parts charcoal) • 6) 5% bleach To test for metal adsorptivity, 100 mL marked xylene tests solution is treated with 5 grams metal shavings at room temperature for 8 hours. GC analysis is again used to determine any loss of marker to the metal surface.

The nature of data set [2]: Metal adsorptivity of the marker from xylene solution (GC). The data set is classed as physicochemical. The following applies: Metals: 5 grams metal shavings per 100 mL, room temperature, 8 hours. How it is done:
as §1, §2

Regarding `Cc1ccc(C)c(Cc2ccc(-c3ccc(Cc4cc(C)ccc4C)cc3)cc2)c1` [4,4′-bis(2,5-dimethylbenzyl)-1,1′-biphenyl], the “% change” value in data set [1] (2% charcoal (activated)) is recorded as −6%; in data set [1] (5% H2SO4 laundering), −1.75%; in data set [1] (5% NaOH laundering), −2.79%; in data set [1] (5% bleach laundering), −65%; in data set [1] (50% NaOH laundering), −1.74%; in data set [1] (98% H2SO4 laundering), 0.47%. For the same compound, the “% change” value in data set [2] is listed as “+4%”. Besides, the marker in data set [1] (2% charcoal (activated)) worked out at 94; in data set [1] (5% H2SO4 laundering), 98.25; in data set [1] (5% NaOH laundering), 102.79; in data set [1] (5% bleach laundering) it was 35; in data set [1] (50% NaOH laundering), 98.26; in data set [1] (98% H2SO4 laundering) it was 100.47. The marker in data set [2] (relative to control = 100) is recorded as 104.
